# Laboratory results reported in US7371379B2, “Dosages for treatment with anti-ErbB2 antibodies” (Genentech, Inc., priority 1999, dated 2008).
# Tests used:
# [1] = system: ErbB2-overexpressing metastatic breast cancer; experiment: clinical study of chemotherapy with or without HERCEPTIN (Example 1); type: in vivo, human
# Description: Eligibility Criteria Patients had to fulfill all of the following criteria to be eligible for study admission: • Metastatic breast cancer • Overexpression of the ErbB2 (HER2) oncogene (2+ to 3+ as determined by immunohistochemistry or fluorescence in situ hybridization (FISH). [Tumor expression of ErbB2 can be determined by immunohistochemical analysis, as previously described (Slamon et al., [1987] and [1989], supra), of a set of thin sections prepared from the patient's paraffin-archived tumor blocks. The primary detecting antibody used is murine 4D5 MAb, which has the same CDRs as the humanized antibody used for the treatment.
# Beginning on day 7, patients received weekly administration of 2 mg/kg antibody (i.v.) over a 90-minute period.
# The patients received one of two chemotherapy regimens for a minimum of six cycles, provided their disease was not progressing: a) cyclophosphamide and doxorubicin or epirubicin (AC), if patients have not received anthracycline therapy in the adjuvant setting, or b) paclitaxel (T, TAXOL®), if patients have received any anthracycline therapy in the adjuvant setting. […] Subsequent doses of the antibody were given immediately before chemotherapy administration, if the initial dose of the antibody was well tolerated. If the first dose of the antibody was not well tolerated, subsequent infusions continued to precede chemotherapy administration by 24 hours. Patients were permitted to continue receiving chemotherapy beyond six cycles if, in the opinion of the treating physician, they were continuing to receive treatment benefit.
# Cyclophosphamide (600 mg/m^2) was given either by iv push over a minimum period of 3 minutes or by infusion over a maximum period of 2 hours.
# Doxorubicin (60 mg/m^2) or epirubicin (75 mg/m^2) were given either by slow iv push over a minimum period of 3-5 minutes or by infusion over a maximum period of 2 hours, according to institutional protocol.
# All patients receiving paclitaxel were premedicated with dexamethasone (or its equivalent) 20 mg×2, administered orally 12 and 6 hours prior to paclitaxel; diphenhydramine (or its equivalent) 50 mg, iv, administered 30 minutes prior to paclitaxel, and […] (or another H2 blocker) 300 mg, iv, administered 30 minutes prior to paclitaxel.
# Progressive disease also includes those instances when new lesions have appeared.
# Complete Response Disappearance of all radiographically and/or visually apparent tumor for a minimum of 4 weeks. Skin and chest wall complete responses had to be confirmed by biopsy. […]
# Time to disease progression (TTP) was calculated from the beginning of therapy to progression. Confidence limits for response rates were calculated using the exact method for a single proportion. […]
# [2] = serum antibody concentration in xenograft mice (Example 4); type: in vivo, mouse; conditions: Group 1, IV, MD 4 mg/kg
# Method: (§1) This study was set up as disclosed herein in Example 3 for the comparison of intravenous bolus and subcutaneous infusion delivery. A sustained release estrogen implant was inserted subcutaneously one day before tumor cell innoculation as described in Example 3. Six days after tumor cell innoculation, the initial tumor measurement was performed. […] Animals were dosed once weekly for 4 weeks.
# (§2) The mice were treated according to the information in Table 4 and using the techniques disclosed in Example 3. […] The control E25 antibody serum concentration was determined according to standard immunoassay techniques.
# [3] = serum antibody concentration in xenograft mice (Example 3); type: in vivo, mouse; conditions: control s.c. infusion
# Method: (§3) Animals were exposed to estrogen by subcutaneous sustained release estrogen pellet 9 days before the start of dosing to promote growth of grafted tumor cells. The animals were inoculated with the BT474M 1 cells 8 days before the beginning of treatment and tumors were allowed to grow. […] The study groups were treated until day 35. […] Tumor volumes were measured two days before dosing began and twice per week from day 6 to day 35 in the study for which data is tabulated below. Tumors were measured in three dimensions and volumes were expressed in mm^3. Efficacy was determined by a statistical comparison (ANOVA) of tumor volumes of test animals relative to untreated control animals.
# BT-474M1 [4] = experiment: nude mouse xenograft tumor volume, i.v. bolus versus s.c. bolus (Example 4); type: in vivo; conditions: Group 1, IV Control
# Method: as §1, §2
# For this study, efficacy was measured as a decrease in tumor volume. Tumor volume was measured twice weekly.
# BT-474M1 [5] = experiment: nude mouse xenograft tumor volume, i.v. bolus versus s.c. infusion (Example 3); type: in vivo; conditions: control s.c. infusion
# Method: A study in a nude mouse xenograft model, which incorporates a human breast cancer cell line that naturally overexpresses the HER2 gene (BT-474M1, derived from BT-474 cells, ATCC Accession number HTB-20), comparing tumor volume as a function of i.v. bolus versus s.c. infusion was performed as follows. In the first study athymic nude nu nu 7-9 week old female mice were obtained from Taconic Inc (Germantown, N.Y.). To initiate tumor development, each mouse was inoculated subcutaneously with 3×10^6 BT474M1 cells suspended in Matrigel™. When tumor nodules reached a volume of approximately 100 mm^3, animals were randomized to 4 treatment groups.
# as §3
# [6] = median follow-up 10.5 months, H 4 mg/kg then 2 mg/kg weekly i.v.
syndrome of myocardial dysfunction ([1]; Grade ¾) [%],Molecule,AE(%) overall severe adverse events ([1]; median follow-up 10.5 months) [%],"RR(%) [1, 6] [%]","TTP(months) [1, 6] [months]","Serum Concentration, Mean ([2]; Day 0) [ng/mL]","Serum Concentration, Mean ([2]; Day 7) [ng/mL]","Serum Concentration, Mean ([2]; Day 14) [ng/mL]","Serum Concentration, Mean ([2]; Day 21) [ng/mL]","HERCEPTIN Serum Conc. (μg/ml), Day 27 [3] [µg/mL]","Tumor Vol. Day 28, mm^3 (BT-474M1 [4]) [mm^3]","Tumor Vol. Day 31, mm^3 (BT-474M1 [4]) [mm^3]","Tumor Vol. Day 6, mm^3 (BT-474M1 [4]; LD 8, MD 4 mg/kg/week, initial measurement before first dose) [mm^3]","Day 6-Day 31 Area Under Curve Tumor Vol., mm^3 (BT-474M1 [4]; Day 17 excluded) [mm^3]",Tumor Volume (area under curve) Day 6-Day 35 (BT-474M1 [5]),"Tumor Volume (mm^3), Day 35 (BT-474M1 [5]; IV LD 2.20 mg/kg, infusate […]) [mm^3]"
0,"CC(=O)O[C@H]1C(=O)[C@@]2(C)[C@H]([C@H](OC(=O)c3ccccc3)[C@]3(O)C[C@H](OC(=O)[C@H](O)[C@@H](NC(=O)c4ccccc4)c4ccccc4)C(C)=C1C3(C)C)[C@]1(OC(C)=O)CO[C@@H]1C[C@@H]2O [T, paclitaxel]",59,25.0,4.2,–,–,–,–,–,–,–,–,–,–,–
–,"rhu MAb E25: nonrelevant antibody E25 (non-specific for HER2 receptor, but a member of the monoclonal IgG class)",–,–,–,0,25900,34600,38500,4.16 ± 1.94,1530,1630,321,13600,5650 ± 4700,764 ± 700
